According to ChEMBL document CHEMBL6153102, “Rational Design, Synthesis, and Biological Evaluation of Novel c-Met Degraders for Lung Cancer Therapy” (J Med Chem, 2025):
The source made the active and inactive calls. The rule behind the calls is not given here.

Legend:
[1] = molecular target: T1, Protein cereblon/Hepatocyte growth factor receptor (Homo sapiens, UniProt P08581+Q96SW2); assay: PROTAC activity at c-Met/CRBN in human HCT-116 cells assessed as induction of c-Met degradation at 100 nM incubated for 24 hrs by Western blotting analysis relative to control; assay type: cell-based
[2] = molecular target: T1, Protein cereblon/Hepatocyte growth factor receptor; assay: PROTAC activity at c-Met/CRBN in human A549 cells assessed as induction of c-Met degradation at 100 nM incubated for 24 hrs by Western blotting analysis relative to control; assay type: cell-based
[3] = molecular target: T1, Protein cereblon/Hepatocyte growth factor receptor; assay: PROTAC activity at c-Met/CRBN in human EBC-1 cells assessed as induction of c-Met degradation at 100 nM incubated for 24 hrs by Western blotting analysis relative to control; assay type: cell-based
Hs746T = assay: Antiproliferative activity against human Hs746T cells assessed as cell viability incubated for 72 hrs by MTT assay; assay type: functional, cell-based
MKN-45 = assay: Antiproliferative activity against human MKN-45 cells assessed as cell viability incubated for 72 hrs by MTT assay; assay type: functional, cell-based; settings: MKN-45, 72 h
EBC-1 [4] = assay: Antitumor activity against human EBC-1 cells xenografted BALB/c nude mouse assessed as reduction in tumor volume at 20 mg/kg, ip administered for 7 days; assay type: functional; design: scale not given: the % may be the effect or the level left; settings: time 7 day
HCT-116 = assay: Antiproliferative activity against human HCT-116 cells assessed as cell viability incubated for 72 hrs by MTT assay; assay type: functional, cell-based; settings: HCT-116, 72 h
EBC-1 [5] = assay: Antiproliferative activity against human EBC-1 cells assessed as cell viability incubated for 72 hrs by MTT assay; assay type: functional, cell-based; settings: EBC-1, 72 h
A549 = assay: Antiproliferative activity against human A549 cells assessed as cell viability incubated for 72 hrs by MTT assay; assay type: functional, cell-based; settings: A549, 72 h

T1 sequence (P08581 25-1390 limits assumed): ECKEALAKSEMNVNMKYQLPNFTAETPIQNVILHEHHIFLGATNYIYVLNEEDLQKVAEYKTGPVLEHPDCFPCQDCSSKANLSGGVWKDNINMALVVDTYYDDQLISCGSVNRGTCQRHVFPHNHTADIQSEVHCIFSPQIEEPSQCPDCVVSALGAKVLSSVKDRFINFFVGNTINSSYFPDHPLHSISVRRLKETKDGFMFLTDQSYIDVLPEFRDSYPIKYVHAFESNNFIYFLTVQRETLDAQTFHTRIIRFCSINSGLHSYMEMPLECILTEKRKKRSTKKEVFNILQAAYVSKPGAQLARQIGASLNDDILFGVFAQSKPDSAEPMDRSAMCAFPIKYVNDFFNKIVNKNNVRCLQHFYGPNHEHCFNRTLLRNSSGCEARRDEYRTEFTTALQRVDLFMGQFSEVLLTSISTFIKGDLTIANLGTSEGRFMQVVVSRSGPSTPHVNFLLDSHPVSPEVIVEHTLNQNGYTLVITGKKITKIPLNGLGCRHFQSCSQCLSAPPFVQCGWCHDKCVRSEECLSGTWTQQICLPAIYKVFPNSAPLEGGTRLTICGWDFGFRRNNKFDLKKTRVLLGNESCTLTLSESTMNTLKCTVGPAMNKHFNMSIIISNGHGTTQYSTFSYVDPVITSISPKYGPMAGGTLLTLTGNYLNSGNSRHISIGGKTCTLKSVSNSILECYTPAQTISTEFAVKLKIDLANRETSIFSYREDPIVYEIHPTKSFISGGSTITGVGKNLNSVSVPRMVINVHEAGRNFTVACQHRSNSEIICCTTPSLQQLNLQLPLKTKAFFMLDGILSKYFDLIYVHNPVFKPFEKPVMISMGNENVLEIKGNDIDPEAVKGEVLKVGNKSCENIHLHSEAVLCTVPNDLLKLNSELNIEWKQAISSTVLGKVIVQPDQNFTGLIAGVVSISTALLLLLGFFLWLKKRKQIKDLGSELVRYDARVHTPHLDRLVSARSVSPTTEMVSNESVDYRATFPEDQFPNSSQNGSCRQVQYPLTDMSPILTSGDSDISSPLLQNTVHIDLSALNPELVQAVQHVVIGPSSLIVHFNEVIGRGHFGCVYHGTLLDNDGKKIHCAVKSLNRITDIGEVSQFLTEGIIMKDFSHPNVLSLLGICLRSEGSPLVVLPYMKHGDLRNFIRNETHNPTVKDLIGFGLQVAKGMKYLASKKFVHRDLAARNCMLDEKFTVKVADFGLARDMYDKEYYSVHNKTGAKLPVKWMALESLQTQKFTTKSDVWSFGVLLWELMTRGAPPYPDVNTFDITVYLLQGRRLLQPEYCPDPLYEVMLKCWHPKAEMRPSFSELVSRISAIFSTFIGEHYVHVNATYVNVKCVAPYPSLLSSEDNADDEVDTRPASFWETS
T1 sequence (Q96SW2 whole entry partner): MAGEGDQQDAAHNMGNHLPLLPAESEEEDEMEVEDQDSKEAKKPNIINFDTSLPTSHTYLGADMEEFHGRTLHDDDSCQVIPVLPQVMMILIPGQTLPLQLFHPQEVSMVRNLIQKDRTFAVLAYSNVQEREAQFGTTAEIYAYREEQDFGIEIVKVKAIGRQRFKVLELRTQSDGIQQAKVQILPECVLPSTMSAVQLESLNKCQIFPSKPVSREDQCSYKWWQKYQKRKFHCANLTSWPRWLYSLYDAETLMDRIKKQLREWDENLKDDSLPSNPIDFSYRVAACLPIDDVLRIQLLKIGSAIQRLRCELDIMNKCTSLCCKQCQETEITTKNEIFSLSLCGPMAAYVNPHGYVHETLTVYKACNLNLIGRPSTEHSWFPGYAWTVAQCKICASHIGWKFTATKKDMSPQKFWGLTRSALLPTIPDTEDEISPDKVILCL

SMILES	Activity [1]	Activity [2]	Activity [3]	further results
COc1ccc(C(=O)N2CCN(C(=O)CN3CCC(COc4cnc(-c5cccc(Cn6nc(-c7cccc(C#N)c7)ccc6=O)c5)nc4)CC3)CC2)cc1N1CCC(=O)NC1=O	inactive	inactive	inactive	–
N#Cc1cccc(-c2ccc(=O)n(Cc3cccc(-c4ncc(OCC5CCN(C(=O)CCCCNC(=O)C6CC7C=CC6C7)CC5)cn4)c3)n2)c1 (stereo not given)	inactive	inactive	12.4%	–
CC(C)Cc1ccc([C@H](C)C(=O)N2CCC(COc3cnc(-c4cccc(Cn5nc(-c6cccc(C#N)c6)ccc5=O)c4)nc3)CC2)cc1	inactive	inactive	23.3%	–
N#Cc1cccc(-c2ccc(=O)n(Cc3cccc(-c4ncc(OCC5CCN(C(=O)CCCCNC(=O)C(C6CCCCC6)C6CCCCC6)CC5)cn4)c3)n2)c1	inactive	inactive	0.9%	–
COc1ccc(C(=O)N2CCC3(CCN(C(=O)CCN4CCC(COc5cnc(-c6cccc(Cn7nc(-c8cccc(C#N)c8)ccc7=O)c6)nc5)CC4)CC3)CC2)cc1N1CCC(=O)NC1=O	inactive	inactive	85.6%	–
CC(C)Cc1ccc([C@H](C)C(=O)NCCCCC(=O)N2CCC(COc3cnc(-c4cccc(Cn5nc(-c6cccc(C#N)c6)ccc5=O)c4)nc3)CC2)cc1	inactive	inactive	inactive	–
COc1ccc(C(=O)N2CCC3(CCN(C(=O)CN4CCC(COc5cnc(-c6cccc(Cn7nc(-c8cccc(C#N)c8)ccc7=O)c6)nc5)CC4)C3)CC2)cc1N1CCC(=O)NC1=O	inactive	inactive	74.6%	–
N#Cc1cccc(-c2ccc(=O)n(Cc3cccc(-c4ncc(OCC5CCN(C(=O)C6CC7C=CC6C7)CC5)cn4)c3)n2)c1 (stereo not given)	inactive	inactive	22.4%	–
N#Cc1cccc(-c2ccc(=O)n(Cc3cccc(-c4ncc(OCC5CCN(C(=O)CCCCNC(=O)C(c6ccccc6)c6ccccc6)CC5)cn4)c3)n2)c1	inactive	inactive	4.4%	–
COc1ccc(C(=O)NCCCCCCN2CCC(COc3cnc(-c4cccc(Cn5nc(-c6cccc(C#N)c6)ccc5=O)c4)nc3)CC2)cc1N1CCC(=O)NC1=O	inactive	inactive	inactive	–
N#Cc1cccc(-c2ccc(=O)n(Cc3cccc(-c4ncc(OCC5CCN(C(=O)C(C6CCCCC6)C6CCCCC6)CC5)cn4)c3)n2)c1	inactive	inactive	inactive	–
CN1CCC(COc2cnc(-c3cccc(Cn4nc(-c5cccc(C#N)c5)ccc4=O)c3)nc2)CC1 [TEPOTINIB]	–	–	–	IC50 (Hs746T): 38 nM; IC50 (MKN-45): 63 nM; Activity (EBC-1 [4]): 74.5%; IC50 (HCT-116): 4.94 µM; IC50 (EBC-1 [5]): 12 nM; IC50 (A549): 13.5 µM
N#Cc1cccc(-c2ccc(=O)n(Cc3cccc(-c4ncc(OCC5CCN(C(=O)CCCCNC(=O)C6c7ccccc7-c7ccccc76)CC5)cn4)c3)n2)c1	inactive	inactive	4.1%	–
COc1ccc(C(=O)N2CCC3(CCN(C(=O)CN4CCC(COc5cnc(-c6cccc(Cn7nc(-c8cccc(C#N)c8)ccc7=O)c6)nc5)CC4)C3)C2)cc1N1CCC(=O)NC1=O (stereo not given)	inactive	inactive	54.1%	–
N#Cc1cccc(-c2ccc(=O)n(Cc3cccc(-c4ncc(OCC5CCN(C(=O)C(c6ccccc6)c6ccccc6)CC5)cn4)c3)n2)c1	inactive	inactive	2.7%	–
COc1ccc(C(=O)NCCCCN2CCC(COc3cnc(-c4cccc(Cn5nc(-c6cccc(C#N)c6)ccc5=O)c4)nc3)CC2)cc1N1CCC(=O)NC1=O	inactive	inactive	inactive	–
COc1ccc(C(=O)N2CCC3(CC2)CN(C(=O)CN2CCC(COc4cnc(-c5cccc(Cn6nc(-c7cccc(C#N)c7)ccc6=O)c5)nc4)CC2)C3)cc1N1CCC(=O)NC1=O	inactive	inactive	37.7%	–
COc1ccc(C(=O)N2CC3CC(CN(C(=O)CN4CCC(COc5cnc(-c6cccc(Cn7nc(-c8cccc(C#N)c8)ccc7=O)c6)nc5)CC4)C3)C2)cc1N1CCC(=O)NC1=O	inactive	inactive	inactive	–
N#Cc1cccc(-c2ccc(=O)n(Cc3cccc(-c4ncc(OCC5CCN(C(=O)C6c7ccccc7-c7ccccc76)CC5)cn4)c3)n2)c1	inactive	inactive	13.4%	–
COc1ccc(C(=O)N2CCC3(CCN(C(=O)CCCCCN4CCC(COc5cnc(-c6cccc(Cn7nc(-c8cccc(C#N)c8)ccc7=O)c6)nc5)CC4)CC3)CC2)cc1N1CCC(=O)NC1=O	inactive	inactive	79.1%	–
N#Cc1cccc(-c2ccc(=O)n(Cc3cccc(-c4ncc(OCC5CCN(C(=O)C[C@]67CC8CC(C[C@H](C8)C6)C7)CC5)cn4)c3)n2)c1	inactive	inactive	1.5%	–
N#Cc1cccc(-c2ccc(=O)n(Cc3cccc(-c4ncc(OCC5CCN(C(=O)CCCCNC(=O)CC67C[C@H]8C[C@@H](C6)C[C@@H](C7)C8)CC5)cn4)c3)n2)c1	inactive	inactive	2.8%	–
COc1ccc(C(=O)N2CC3CN(C(=O)CN4CCC(COc5cnc(-c6cccc(Cn7nc(-c8cccc(C#N)c8)ccc7=O)c6)nc5)CC4)CC3C2)cc1N1CCC(=O)NC1=O (stereo not given)	inactive	inactive	inactive	–
COc1ccc(C(=O)N2CCC3(CCN(C(=O)CCCCN4CCC(COc5cnc(-c6cccc(Cn7nc(-c8cccc(C#N)c8)ccc7=O)c6)nc5)CC4)CC3)CC2)cc1N1CCC(=O)NC1=O	inactive	inactive	83.7%	–
